These results are taken from ChEMBL document CHEMBL1128598, “Potential anxiolytic agents. Pyrido[1,2-a]benzimidazoles: a new structural class of ligands for the benzodiazepine binding site on GABA-A receptors” (J Med Chem, 1995).

Assay [1] deals with GABA-A receptor; anion channel. Nature of the assay: Binding affinity against benzodiazepine site of gamma-aminobutyric-acid A receptor of rat cerebral cortex by using [3H]flunitrazepam in the absence of GABA. The format is tissue-based.
Assay [2] relates to Mus musculus. The assay is described as follows: The ability to block the tonic-clonic component of seizures induced by metrazole in mice after intraperitoneal administration. As to conditions: ip. In kind it is functional.
Assay [3] relates to Rattus norvegicus. The assay is described as follows: Minimum effective dose as dose required to release behavior in suppressed rats by conflict test after intraperitoneal administration. The format is functional. Particulars: ip, read-out: MED.
Assay [4] has as its target GABA-A receptor; anion channel. Nature of the assay: Binding affinity against benzodiazepine site of gamma-aminobutyric-acid A receptor of rat cerebral cortex by using [3H]flunitrazepam in the presence of GABA 1 mM. In kind it is tissue-based.
Assay [5] addresses GABA-A receptor; anion channel (Rattus norvegicus) (UniProt O09028+P15431+P18506+P18508+P19969+P20236+P23574+P23576+P28471+P28473+P30191+P62813+P63079+P63138+Q91ZM7+Q9ES14). Nature of the assay: GABA shift as the ratio of IC50 (no GABA) to that of IC50 (GABA); GABA shift. The format is protein-complex assay.

For orientation: IC50 means the concentration at which inhibition is half-maximal. The term ED50 denotes the dose at which the effect has come halfway, by size or by number of responders. Low values mean an effect at a small dose, high ones a need for a large dose.

`OC1=C(/C(S)=N/c2ccccc2)c2nc3ccccc3n2CC1`: the IC50 in assay [1] came to 360 nM; in assay [4], 320 nM. In addition, the ED50 in assay [2] is > 10 mg/kg. In assay [3], the minimal effective dose is > 10 mg/kg. Moreover, the GS in assay [5] is 1.1.

Take `O=C(NC1CCC1)C1=C(O)CCn2c1nc1ccccc12`: the IC50 in assay [1] is 30 nM; in assay [4], 25 nM. In addition, the ED50 in assay [2] was > 30 mg/kg. The minimal effective dose in assay [3] was 10 mg/kg. In assay [5], the GS worked out at 1.2.

As to `O=C1CCN2C(=C1C(=O)Nc1ccccc1)N(Cc1ccccc1)c1ccccc12`, the IC50 worked out at 12 nM in assay [1] and 2.7 nM in assay [4]. In assay [2], this compound had an ED50 of 1.4 mg/kg. Besides, the minimal effective dose in assay [3] was 10 mg/kg. The GS in assay [5] is 4.6.

On to `COc1cccc(NC(=O)C2=C(O)CCn3c2nc2ccccc23)c1`, for which the IC50 was 26 nM in assay [1] and 16 nM in assay [4]. The ED50 in assay [2] was > 10 mg/kg. In assay [3], the minimal effective dose was determined as 5 mg/kg. Further, the GS in assay [5] is 1.6.

For the compound `CCN1C2=C(C(=O)Nc3ccccc3)C(=O)CCN2c2ccccc21`, the IC50 in assay [1] is 2.1 nM; in assay [4], 1.4 nM. Besides, it took a dose of 0.083 mg/kg to reach the 50% effect level in assay [2] (ED50). The minimal effective dose in assay [3] was 0.3 mg/kg. Also, the GS in assay [5] was found to be 1.6.

Take `NC(=O)C1=C(O)CCn2c1nc1ccccc12`: the IC50 was determined as 2400 nM in assay [1] and 6000 nM in assay [4]. In addition, the ED50 in assay [2] was > 30 mg/kg. Further, in assay [3], the minimal effective dose amounted to 10 mg/kg. Also, the GS in assay [5] is 0.4.

As to `O=C1CCn2c(nc3ccccc32)/C1=C(\O)Oc1ccccc1`, the IC50 in assay [1] is 200 nM; in assay [4] it was 150 nM. In assay [2], the 50% effect level (ED50) was put at a dose of 9.9 mg/kg. Moreover, in assay [3], the minimal effective dose was > 10 mg/kg. In addition, the GS in assay [5] turned out to be 1.4.

For `CN(C(=O)C1=C(O)CCn2c1nc1ccccc12)c1ccccc1`, the IC50 in assay [1] and in assay [4] was > 10000 nM each time. Also, the ED50 in assay [2] is > 10 mg/kg. For the same compound, the minimal effective dose in assay [3] was > 10 mg/kg.

`O=C1CCn2c(nc3ccccc32)/C1=C(\O)Sc1ccccc1`: the values for the IC50 in assay [1] and in assay [4] were 29 nM and 26 nM, respectively. In addition, in assay [2], the ED50 is > 30 mg/kg. In assay [3], the minimal effective dose is > 10 mg/kg. Further, the GS in assay [5] amounted to 1.1.

As for `O=C(Nc1ccccc1F)C1=C(O)CCn2c1nc1ccccc12`, the IC50 in assay [1] worked out at 1.7 nM; in assay [4], 1.4 nM. The compound further showed an ED50 in assay [2] of 0.16 mg/kg. In assay [3], the minimal effective dose was found to be 1 mg/kg. Moreover, the GS in assay [5] is 1.2.

Regarding `CN1C2=C(C(=O)Nc3ccccc3F)C(=O)CCN2c2ccccc21`, the results for the IC50 in assay [1] and in assay [4] were 0.42 nM and 0.26 nM, respectively. The 50% effect level in assay [2] (ED50) was put at a dose of 0.019 mg/kg. In assay [3], the minimal effective dose was found to be 0.03 mg/kg. Besides, the GS in assay [5] stood at 1.6.

For the compound `O=C(Nc1ccccc1)c1c(O)ccn2c1nc1ccccc12`, the IC50 in assay [1] was 24 nM; in assay [4], 14 nM. This compound displayed an ED50 in assay [2] of 0.39 mg/kg. Moreover, in assay [3], the minimal effective dose was 10 mg/kg. The GS in assay [5] came out at 1.7.

For the compound `O=C(Nc1ccc(Cl)cc1)C1=C(O)CCn2c1nc1ccccc12`, the figures for the IC50 in assay [1] and in assay [4] were 620 nM and 265 nM, respectively. Moreover, it took a dose of 8.9 mg/kg to reach the 50% effect level in assay [2] (ED50). For the same compound, in assay [3], the minimal effective dose stood at 1 mg/kg. Moreover, the GS in assay [5] was 2.3.

With `O=C(NC1CC1)C1=C(O)CCn2c1nc1ccccc12`, the IC50 amounted to 16 nM in assay [1] and 18 nM in assay [4]. The ED50 in assay [2] was > 10 mg/kg. Moreover, the minimal effective dose in assay [3] was > 10 mg/kg. Also, the GS in assay [5] amounted to 0.87.

Turning to `O=C1CCN2C(=C1C(=O)Nc1ccccc1)Nc1ccccc12`, the IC50 in assay [1] turned out to be 9.1 nM; in assay [4], 5.9 nM. Also, in assay [2], the 50% effect level (ED50) was put at a dose of 5.2 mg/kg. The minimal effective dose in assay [3] was determined as 10 mg/kg. Moreover, the GS in assay [5] turned out to be 1.5.

For `CN1C2=C(C(=O)Nc3ccccc3)C(=O)CCN2c2ccccc21`, the figures for the IC50 in assay [1] and in assay [4] were 5.8 nM and 2.1 nM, respectively. The ED50 in assay [2] came to 0.13 mg/kg. The minimal effective dose in assay [3] was 1 mg/kg. In addition, in assay [5], the GS turned out to be 2.8.

`COc1ccc(NC(=O)C2=C(O)CCn3c2nc2ccccc23)cc1`: the IC50 in assay [1] was 41 nM; in assay [4], 16 nM. Further, the ED50 in assay [2] was 2 mg/kg. Besides, the minimal effective dose in assay [3] is 10 mg/kg. Besides, the GS in assay [5] was determined as 2.6.

In assay [2], `CN1C(=O)CN=C(c2ccccc2)c2cc(Cl)ccc21` [DIAZEPAM] displayed an ED50 of 0.11 mg/kg. Moreover, the minimal effective dose in assay [3] was 5 mg/kg. Moreover, the GS in assay [5] stood at 2.2.

In the case of `O=C(NC1CCCCC1)C1=C(O)CCn2c1nc1ccccc12`, the results for the IC50 in assay [1] and in assay [4] were 140 nM and 72 nM, respectively. In assay [2], this compound gave an ED50 of 3 mg/kg. For the same compound, the minimal effective dose in assay [3] amounted to 10 mg/kg. In assay [5], the GS was found to be 2.

For `O=C(Nc1c(F)cccc1F)C1=C(O)CCn2c1nc1ccccc12`, the IC50 was found to be 2.8 nM in assay [1] and 1.7 nM in assay [4]. The same compound displayed an ED50 in assay [2] of 0.85 mg/kg. The minimal effective dose in assay [3] stood at 0.1 mg/kg. Besides, the GS in assay [5] is 1.6.

Regarding `O=C(Nc1ccccc1Cl)C1=C(O)CCn2c1nc1ccccc12`, the figures for the IC50 in assay [1] and in assay [4] were 12 nM and 5.3 nM, respectively. This compound had an ED50 in assay [2] of 0.95 mg/kg. The minimal effective dose in assay [3] came to 10 mg/kg. Also, the GS in assay [5] turned out to be 2.3.

With `CCO/C(O)=C1\C(=O)CCn2c1nc1ccccc12`, the IC50 in assay [1] came to 675 nM; in assay [4], 840 nM. The ED50 in assay [2] was > 10 mg/kg. The GS in assay [5] is 0.68.

On to `O=C(Nc1cccc(Cl)c1)C1=C(O)CCn2c1nc1ccccc12`, for which the IC50 stood at 120 nM in assay [1] and 95 nM in assay [4]. For the same compound, in assay [2], the ED50 is > 30 mg/kg. Also, in assay [3], the minimal effective dose was > 10 mg/kg. For the same compound, in assay [5], the GS was found to be 1.3.

Regarding `COc1ccccc1NC(=O)C1=C(O)CCn2c1nc1ccccc12`, the IC50 is 990 nM in assay [1] and 940 nM in assay [4]. For the same compound, the ED50 in assay [2] is > 10 mg/kg. Further, the minimal effective dose in assay [3] was > 10 mg/kg. Besides, the GS in assay [5] is 1.1.

Regarding `O=C(Nc1c(Cl)cccc1Cl)C1=C(O)CCn2c1nc1ccccc12`, the IC50 worked out at 320 nM in assay [1] and 170 nM in assay [4]. Further, the ED50 in assay [2] was > 30 mg/kg. The minimal effective dose in assay [3] was > 10 mg/kg. In addition, the GS in assay [5] came to 1.9.

`O=C(Nc1ccccc1F)c1c(O)ccn2c1nc1ccccc12`: the IC50 in assay [1] turned out to be 0.23 nM; in assay [4], 0.11 nM. In assay [2], this compound gave an ED50 of 0.088 mg/kg. Besides, the minimal effective dose in assay [3] is 0.1 mg/kg. Besides, in assay [5], the GS came out at 2.1.
